Source: US20250327097A1, “ORGANISMS PRODUCING LESS CROTONIC ACID” (Global Bioenergies, priority 2021, published 2025)

B1: ScFdc-UbiX: Fdc homologue, Uniprot Q03034, co-expressed with UbiX in pETDuet (protein, UniProt Q03034 1-503, looked up)
Ferulic acid decarboxylase 1: MRKLNPALEFRDFIQVLKDEDDLIEITEEIDPNLEVGAIMRKAYESHLPAPLFKNLKGASKDLFSILGCPAGLRSKEKGDHGRIAHHLGLDPKTTIKEIIDYLLECKEKEPLPPITVPVSSAPCKTHILSEEKIHLQSLPTPYLHVSDGGKYLQTYGMWILQTPDKKWTNWSIARGMVVDDKHITGLVIKPQHIRQIADSWAAIGKANEIPFALCFGVPPAAILVSSMPIPEGVSESDYVGAILGESVPVVKCETNDLMVPATSEMVFEGTLSLTDTHLEGPFGEMHGYVFKSQGHPCPLYTVKAMSYRDNAILPVSNPGLCTDETHTLIGSLVATEAKELAIESGLPILDAFMPYEAQALWLILKVDLKGLQALKTTPEEFCKKVGDIYFRTKVGFIVHEIILVADDIDIFNFKEVIWAYVTRHTPVADQMAFDDVTSFPLAPFVSQSSRSKTMKGGKCVTNCIFRQQYERSFDYITCNFEKGYPKGLVDKVNENWKRYGYK
modifications: co-expressed with UbiX
notes: Fdc homologue, Uniprot Q03034, co-expressed with UbiX in pETDuet
B2: CdFdc-UbiX: Fdc homologue, Uniprot B9WJ66, co-expressed with UbiX in pETDuet (protein, UniProt B9WJ66 1-513, looked up)
Ferulic acid decarboxylase 1: MSLNPALKFRDFIQVLKNEGDLIEIDTEVDPNLEVGAITRKAYENKLAAPLFNNLKQDPENIDPKNLFRILGCPGGLRGFGNDHARIALHLGLDSQTPMKEIIDFLVANRNPKKYIPPVLVPNDQSPHKKHHLTKEQIDLTKLPVPLLHHGDGGKFIQTYGMWVLQTPDKSWTNWSIARGMVHDSKSITGLVINPQHVKQVSDAWVAAGKGDKIPFALCFGVPPAAILVSSMPIPDGATEAEYIGGLCNQAVPVVKCETNDLEVPADCEMVFEGYLDRDTLVREGPFGEMHGYCFPKDHHTQPLYRVNHISYRDQAIMPISNPGLCTDETHTLIGGLVSAETKYLISQHPVLSKIVEDVFTPYEAQALWLAVKINTHELVKLKTNAKELSNLVGDFLFRSKECYKVCSILHEIILVGDDIDIFDFKQLIWAYTTRHTPVQDQLYFDDVKPFALAPFASQGPLIKTRQGGKCVTTCIFPKQFTDPDFEFVTCNFNGYPEEVKNKISQNWDKYYK
modifications: co-expressed with UbiX
notes: Fdc homologue, Uniprot B9WJ66, co-expressed with UbiX in pETDuet
B3: FabV: purified FabV from Treponema denticola (EC 1.3.1.44), Uniprot Q73Q47 (protein, listed as Treponema denticola)
chain: MIVKPMVRNNICLNAHPQGCKKGVEDQIEYTKKRITAEVKAGAKAPKNVLVLGCSNGYGLASRITAAFGYGAATIGVSFEKAGSETKYGTPGWYNNLAFDEAAKREGLYSVTIDGDAFSDEIKAQVIEEAKKKGIKFDLIVYSLASPVRTDPDTGIMHKSVLKPFGKTFTGKTVDPFTGELKEISAEPANDEEAAATVKVMGGEDWERWIKQLSKEGLLEEGCITLAYSYIGPEATQALYRKGTIGKAKEHLEATAHRLNKENPSIRAFVSVNKGLVTRASAVIPVIPLYLASLFKVMKEKGNHEGCIEQITRLYAERLYRKDGTIPVDEENRIRIDDWELEEDVQKAVSALMEKVTGENAESLTDLAGYRHDFLASNGFDVEGINYEAEVERFDRI
modifications: FabV
notes: purified FabV from Treponema denticola (EC 1.3.1.44), Uniprot Q73Q47
B4: UbiX alone: UbiX (E. coli K-12) expressed without Fdc, control (protein, UniProt P0AG03 1-189, looked up)
Flavin prenyltransferase UbiX: MKRLIVGISGASGAIYGVRLLQVLRDVTDIETHLVMSQAARQTLSLETDFSLREVQALADVTHDARDIAASISSGSFQTLGMVILPCSIKTLSGIVHSYTDGLLTRAADVVLKERRPLVLCVRETPLHLGHLRLMTQAAEIGAVIMPPVPAFYHRPQSLDDVINQTVNRVLDQFAITLPEDLFARWQGA

Legend:
[1] = tested on: TaFdcV; experiment: Acid binding and cycloadduct formation with TaFdcV (UV-Vis, ESI-MS, co-crystallization)
Experimental: TaFdcV (500 μL, 0.45 mM protein, 25 mM HEPES, 150 mM KCl, pH 6.8) was incubated with crotonic or 2-butynoic acid. The formation of the prFMN-crotonic acid cycloadduct was followed by UV-Vis spectroscopy and additional acid were added until full conversion (complete loss of the 380 nm peak). The protein was desalted to 25 mM HEPES, 150 mM KCl, pH 6.8 and plated for crystal trials.

[2] = tested on: ferulic acid decarboxylase (FDC); experiment: Inhibition of ferulic acid decarboxylase; type: biochemical
Excerpt: In recombinant organisms or microorganisms, 3-methylcrotonic acid, the substrate of FDC, can be produced from acetyl-CoA in a multistep enzymatic process. The final conversion of 3-methylcrotonic acid into isobutene can be carried out in the same recombinant organism or microorganism that has been used for the production of 3-methylcrotonic acid. In such a one-step process, it is required that the recombinant organism or microorganism encodes the enzyme FDC. Alternatively, isobutene may be produced from 3-methylcrotonic acid in a two-step process. For that, a fermentation culture medium of a recombinant organism or microorganism comprising the produced 3-methylcrotonic acid may be contacted with a recombinant organism or microorganism encoding the enzyme FDC in an in vivo or in vitro biotransformation reaction. In an alternative two-step process, a first recombinant organism or microorganism may be used to convert acetyl-CoA into 3-hydroxyisovaleric acid and the produced 3-hydroxyisovaleric acid may then be converted into isobutene by a second recombinant organism or microorganism (via 3-methylcrotonic acid and FDC).

[3] = molecular target: AnFdc (Aspergillus niger, UniProt A2QHE5); experiment: Quantitative GC assay of pentene production from hexenoic acid; type: biochemical
[4] = tested on: TaFdc; experiment: Acid binding and cycloadduct formation with TaFdc wild-type (UV-Vis)
[5] = molecular target: AnFdc wild-type (Aspergillus niger, UniProt A2QHE5); experiment: Crotonic acid binding by UV-Vis spectra, AnFdc wild-type; details: 2-h incubation
[6] = molecular target: AnFdcII (Aspergillus niger, UniProt A2QHE5, P438W/R435P/T395M); type: binding
[7] = tested on: 3-methylcrotonic acid; experiment: Initial in vivo screening of Fdc homologues co-expressed with UbiX for 3-methylcrotonic acid decarboxylation (isobutene by GC); type: cell-based, E. coli; details: isobutene in headspace from 10 mM 3-methylcrotonic acid; Fdc (MCS1, N-terminal 6His-tag) and UbiX (MCS2) in pETDuet
[8] = tested on: crotonyl-CoA; experiment: Coupled assay positive control: purified FabV with crotonyl-CoA; type: biochemical, Treponema denticola; details: 1 mM crotonyl-CoA, 100 μg/ml FabV, 18 h at 34° C.
Experimental: The acid-CoA ligases were tested as purified enzymes with a coupled assay using purified FabV from Treponema denticola (EC 1.3.1.44) (Uniprot Accession No: Q73Q47) (to convert crotonyl-CoA to butyryl-CoA). The reaction was carried out as follows: 50 μg/ml acid-CoA ligase and 100 μg/ml FabV with a buffered solution containing 100 mM Tris-HCl pH7.5, 20 mM NaCl, 100 mM KCl, 2 mM MgCl2, 1 mM crotonic acid (TCI chemicals), 1 mM ATP (Sigma-Aldrich), 1 mM coenzyme A (Sigma-Aldrich) and 1 mM NADH (Sigma-Aldrich) were incubated 18 h at 34° C. in a water bath, and the reaction was stopped with acetonitrile. […] The produced butyryl-CoA (Sigma-Aldrich) and the consumed crotonic acid (TCI chemicals) were quantified by HPLC with a calibration curve. The samples were injected on a Zorbax SB-Aq column (Agilent) at 30° C. and eluted with 8.4 mM H2SO4 and a gradient of acetonitrile.
The CoA-transferase was tested as purified enzyme with a coupled assay using purified FabV from Treponema denticola (EC 1.3.1.44) (Uniprot Accession No: Q73Q47) (to convert crotonyl-CoA to butyryl-CoA). […] The produced butyryl-CoA (Sigma-Aldrich) and the consumed crotonic acid (TCI chemicals) were quantified by HPLC with a calibration curve. […]

Row | Molecule | binding to TaFdcV, UV-Vis spectrum after desalting [1] | inhibition of FDC [2] | ppm Average [7] [ppm] | also measured
1 | CC#CC(=O)O [2-butynoic acid] | covalent inhibitory adduct is formed |  |  | state of the adduct by ESI-MS and co-crystallization [1]: stalls as Int1
2 | CCCC=CC(=O)O [2-hexenoic acid] | irreversibly binds | irreversible inhibitors |  | pentene production from hexenoic acid [3]: limited to a single turnover; binding to TaFdc, UV-Vis spectrum after desalting [4]: irreversibly binds
3 | CCC=CC(=O)O [2-pentenoic acid] | irreversibly binds | irreversible inhibitors |  | binding to TaFdc, UV-Vis spectrum after desalting [4]: irreversibly binds
4 | C/C=C/C(=O)O [crotonic acid] | covalent inhibitory adduct is formed | irreversible inhibitors |  | binding by UV-Vis spectra [5]: cannot be detected; binding by UV-Vis spectra [6]: readily bind the inhibitor
5 | B1 |  |  | 17.6 | 
6 | B2 |  |  | 4.8 | 
7 | B3 |  |  |  | conversion of crotonyl-CoA to butyryl-CoA [8]: could convert all of it to butyryl-CoA
8 | B4 |  |  | 3.3 | 
